Entries after “also recorded” stand apart in the source; their conditions may differ.
Assays:
Assay type in all cases: cell-based
[1] = tested on: mitochondrial ROS (superoxide); assay: MitoSOX staining, flow cytometry; settings: 24 hours
Description: (§1) Since glutathione peroxidase catalyzes the reduction of reactive oxidative species (ROS), the inventors assessed whether treatment with ISP I increased the generation of ROS in glioblastoma cell lines (LN229 and U251) and RCC cell lines (786-O and RCC4).
To detect changes in mitochondrial superoxide after treatment with ISP I, the inventors used the MitoSOX Red mitochondrial superoxide indicator kit, a product of ThermoFisher Scientific. […] Cells were incubated with 5 μM MitoSOX Red for 15 min at room temperature, followed by flow cytometry analysis. Excitation by means of a 561 nm laser and a 610/20 discriminating filter was applied by a BD LSRFortessa flow cytometer.

[2] = tested on: glutathione-dependent peroxidases (SELH enzyme activity); assay: Glutathione peroxidase activity assay; settings: LN229 cells
From the text: as §1
Glutathione peroxidase kit (Abcam, Cambridge, Mass. USA) was used to quantitate the activity of all of the glutathione-dependent peroxidases in live cells (2×10^6), which were harvested and homogenized with assay buffer provided in the kit. Then the supernatant was collected and incubated in accordance with the manufacturer's instructions. Absorbance at 340 nm was measured using the microplate reader mentioned above.

[3] = target: T1, SELH (Homo sapiens, UniProt Q8IZQ5); assay: Western blot of SELH protein level in treated cells; design: endogenous in cells; host or cells: LN229, 786-O, T98G, U118, U251, RCC4; settings: for SELH protein expression, different concentrations: LN229 cells, 24 hours post-treatment
T1 sequence (Q8IZQ5 1-122): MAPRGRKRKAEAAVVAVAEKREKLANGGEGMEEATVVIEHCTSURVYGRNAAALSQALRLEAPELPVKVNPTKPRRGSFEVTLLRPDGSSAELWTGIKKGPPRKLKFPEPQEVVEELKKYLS
Description: A cycloheximide (CHX) chase assay was completed to assess ISP I's effect on SELH protein degradation.
(§2) Western blotting was performed to detect the protein expression level of SELH, NRF2 and γH2AX regulated by ISP I. The cells were lysed by RIPA buffer from ThermoFisher Scientific, and the concentration was measured using DC Protein Assay, a Bio-Rad product. Equal amounts of protein of each sample were loaded for gel electrophoresis and were transferred to nitrocellulose membrane, blocked and incubated overnight at 4° C. with primary antibodies. Then the membranes were washed with TBST (3 times, 10 min each). Exposure, imaging, and data analysis were done using a KwikQuant Imager system, a product of Kindle Biosciences (Greenwich, Conn. USA). The following antibodies were used: anti-phospho-histone H2A.X (Ser139), anti-NRF2 (Cell Signaling, Danvers, Mass. USA), anti-SELH (Abcam, Cambridge, Mass. USA), anti-GAPDH (Millipore, Temecula, Calif. USA).

[4] = tested on: LN229 and U251 cells; assay: Cell-cycle analysis by flow cytometry (EdU and DAPI), glioblastoma cells
Description: To assess the cytotoxicity of ISPs I, II and III, five glioblastoma cell lines, T98G, U118, A172, LN229 and U251, were treated with serial doses of each ISP, respectively, for 48 hours. Cell viability of these cell lines were evaluated by CCK8 assay, and the 50% inhibitory concentration (IC50) was calculated (FIG. 2A, B and FIG. 3). […] Cell distribution in each phase of the cell cycle was assessed in LN229 and U251 cells by flow cytometry, followed by EdU and DAPI staining.
(§3) For monitoring cell-cycle arrest of ISP I-treated cells, Click-iT EdU Flow Cytometry Assay Kits were used, a product of ThermoFisher Scientific. Cells were co-cultured with EdU at a concentration of 10 μM for 1 hour. After fixation and permeabilization, EdU-positive cells were labeled with Alexa Fluor 647 fluorescein. DAPI also was used for measuring total DNA content to identify differences in cell cycle phases. Data were collected by means of a BD LSRFortessa flow cytometer using FlowJo software. Cells that are positive with EdU and DAPI were in S-Phase of the cell cycle.

[5] = tested on: JNK2, POL1, TIF1A; assay: Western blot of JNK2 phosphorylation, POL1 and TIF1A; settings: LN229 cells
Description: (§4) SELH is localized in the nucleolus, which is a sensor of oxidative stress. Yang et al., Nature communications 7: 13599 (2016); Novoselov et al., J. Biol. Chem. 282: 11960 (2007). […] JNK2 activation by oxidative stress inactivated RNA polymerase I (POL1) transcription factor TIF1A in the nucleoli to down-regulate rRNA synthesis. Mayer et al., Genes Dev. 19: 933 (2005). To investigate whether the ribosomal biogenesis was disrupted by ISP I, pre-rRNA transcription was evaluated using real-time RT-PCR analysis in LN229 cells. […] To examine the mechanisms by which ISP I disrupts POL1 transcription, the inventors initially evaluated JNK2 activity and the overall state of the transcription machinery in ISP I-treated LN229 cells.
as §2, with “The following antibodies were used: anti-phospho-histone H2A.X (Ser139), anti-NRF2 (Cell Signaling, Danvers, Mass. USA), anti-SELH (Abcam, Cambridge, Mass. USA), anti-GAPDH (Millipore, Temecula, Calif. USA).” left out

[6] = tested on: 786-O and RCC4 cells; assay: Cell-cycle analysis by flow cytometry, RCC cells
Description: To confirm the cytotoxic effect observed in the glioblastoma cell lines, the inventors assessed ISP I's effect on renal cell carcinoma (RCC) cell lines (ACHN, UM-RC-2, RCC4 and 786-0). Cell viability was assessed similarly via CKK8 analysis. […] (FIG. 4C, D).
as §3

[7] = tested on: POL1 occupancy on rDNA; assay: Chromatin immunoprecipitation (CHIP) assay; settings: LN229 cells
Description: as §4
ChIP assays were performed using a SimpleCHIP Enzymatic Chromatin IP Kit (Magnetic beads) following the manufacturer's instructions (Cell Signaling Technology; catalog 9003). Cross-linked protein-DNA complexes were precipitated by incubating with rabbit anti-POL1A (CST; 24799s) or rabbit IgG (negative control) overnight and then with magnetic beads for 2 hours. Purified DNA fragments, […], were analyzed quantitatively by real-time PCR with primers against the rDNA promoter and gene body, following the standard-curve method. The standard curves were created by serial dilution of 2% input chromatin DNA. […]

COC1C(O)CC(=O)OC(C)CC=CC=CC(OC2CCC(N(C)C)C(C)O2)C(C)CC(CC=O)C1OC1OC(C)C(OC2CC(C)(O)C(OC(=O)CC(C)C)C(C)O2)C(N(C)C)C1O (stereo not drawn) [ISP I, 4″-isolvalerylspiramycin I]
mitochondrial ROS (MitoSOX) ([1]; LN229 and U251, 5 μg/mL or 10 μg/mL): increase of mitochondrial ROS accumulation; also recorded: higher intracellular ROS in a dose-dependent manner | mitochondrial ROS (MitoSOX) ([1]; RCC cells 786-O and RCC4, 5 μg/ml or 10 μg/ml): increase in mitochondrial ROS accumulation; also recorded: higher intracellular ROS in a dose-dependent manner | glutathione peroxidase activity [2]: decrease, in a dose-dependent manner, of SELH enzyme activity; also recorded: significantly reduced glutathione peroxidase activity | SELH protein levels in RCC cell lines ([3]; 786-O and RCC4, 10 μg/ml, 24 hours): decreased SELH levels; also recorded: inhibitory effect on SELH expression also was confirmed | SELH protein expression, different concentrations [3]: reduced SELH protein expression in LN229 cells in a dose-dependent manner | SELH protein expression, different concentrations ([3]; listed as ISP 1): decline, in a dose-dependent manner, of SELH levels | SELH protein levels in glioblastoma cell lines ([3]; T98G, U118, LN229, U251, 10 μg/mL, 24 hours): decreased SELH levels; also recorded: inhibitory effect on SELH expression also was confirmed | cell distribution in cell-cycle phases [4]: G0/G1 arrest; also recorded: dose-dependent increase in the G0/G1 phase and a decrease in the S phase | JNK phosphorylation (western blot) [5]: increased JNK2 phosphorylation; also recorded: JNK1 phosphorylation increased | POL1 and TIF1A expression (western blot) [5]: slightly reducing POL1 and TIF1A expression in a dose-dependent manner; also recorded: expression of POL1 and TIF1A slightly decreased | cell distribution in cell-cycle phases [6]: clear G0/G1 arrest; also recorded: induced cell-cycle arrest in the G0/G1 phase | POL1 recruitment / occupancy on rDNA (CHIP) [7]: reduces the occupancy of POL1 on rNDA; also recorded: significantly reduced POL1 recruitment to the promoter coding regions of rDNA
